Results published in patent US20230107216A1, “PANTETHEINE DERIVATIVES AND USES THEREOF” (Comet Therapeutics, Inc., priority 2018, published 2023).
Where two headings read alike, the source gives them in different places.

Assays:
[1] = tested on: monocyte-derived M1 macrophages; test: M1 differentiation assay (macrophage TNFα, IL6, IL10 ELISA, FACS); assay type: cell-based, human; settings: for inhibition at 10 µM / inhibition at 50 µM / activation at 10 µM / activation at 50 µM: Homo sapiens, Macrophage; for activation at 10 µM / activation at 50 µM: read-out: % Increase in IL-10 Secretion
Procedure, shortened: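 CD14+ human blood monocytes (100,000) differentiated 6 days with 10 ng/ml GM-CSF plus compound at 10 or 50 μM, refreshed days 2 and 4. Matured 24 h with GM-CSF, IFNγ, LPS plus compound. Supernatant TNFα, IL6, IL10 by ELISA; FACS M1 phenotype CD86+CD68+CD163−.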

[2] = tested on: Propionic Acidemia (PA) primary fibroblasts GM00371; test: Mitochondrial respiration, XFe96 Extracellular Flux Analyzer (OCR/ECAR), PA fibroblasts GM00371; assay type: cell-based; settings: Homo sapiens, Fibroblast
[3] = tested on: Bronchial epithelial cells (BE3C system); test: BioMAP BE3C system (IL-1β, TNFα, IFNγ); assay type: cell-based, human; settings: procedure of Example 831; for inhibition at 10 µM / % decrease in tPA: 10 uM
[4] = 10 uM, read-out: % decrease in Macrophage TNFα Secretion
[5] = assay condition A (10 mM glucose, 2 mM L-glutamine, 1 mM pyruvate, 10% FBS), read-out: Increase in Spare Capacity AUC
[6] = 50 uM, read-out: % decrease in Macrophage IL-6 Secretion
[7] = 10 uM, read-out: % decrease in Macrophage IL-6 Secretion
[8] = assay condition D (1 mM glucose, 10% FBS), read-out: Increase in Spare Capacity AUC
[9] = assay condition D (1 mM glucose, 10% FBS), read-out: Increase in Maximal Respiratory Capacity AUC
[10] = Homo sapiens, Epithelial cell, 24 h, read-out: % decrease in MMP-1
[11] = assay condition C (10 mM glucose, 10% FBS), read-out: Increase in Maximal Respiratory Capacity AUC
[12] = assay condition A (10 mM glucose, 2 mM L-glutamine, 1 mM pyruvate, 10% FBS), read-out: Increase in Maximal Respiratory Capacity AUC

Which “% decrease in Live Macrophage Cells” value ([1]; 50 uM) does the source give for COC(=O)CC[C@H](N)C(=O)SCCNC(=O)CCNC(=O)[C@H](O)C(C)(C)CO [Compound 411] here?
The value was ≥20%.

What about the inhibition at 10 µM [1, 4] of the same molecule?
Its inhibition at 10 µM is ≥ 30%.

And the activation at 10 µM [2, 5]?
The activation at 10 µM was ≥ 30%.

COC(=O)/C=C/C(=O)SCCNC(=O)CCNC(=O)[C@H](O)C(C)(C)COP(=O)(O)O [Compound 73, methyl (R,E)-4-((2-(3-(2-hydroxy-3,3-dimethyl-4-(phosphonooxy)butanamido)propanamido)ethyl)thio)-4-oxobut-2-enoate] was tested. Which inhibition at 10 µM [1, 4] did it give?
Its inhibition at 10 µM is ≥ 30%.

And the inhibition at 50 µM [1, 6]?
Its inhibition at 50 µM is ≥ 30%.

How did the inhibition at 10 µM [1, 4] turn out when C/C=C/C(=O)SCCNC(=O)CCNC(=O)[C@H](O)C(C)(C)COP(=O)(O)O [Compound 82, (R)—S-(2-(3-(2-hydroxy-3,3-dimethyl-4-(phosphonooxy)butanamido)propanamido)ethyl) (E)-but-2-enethioate] was run?
The inhibition at 10 µM was ≥ 30%.

And the inhibition at 50 µM [1, 6]?
The inhibition at 50 µM was ≥ 30%.

How did the “% Increase in Live Macrophage Cells” value ([1]; 10 uM) turn out when CC(C)C(=O)CC(=O)SCCNC(=O)CCNC(=O)[C@H](O)C(C)(C)CO [Compound 1239, (R)—S-(2-(3-(2,4-dihydroxy-3,3-dimethylbutanamido)propanamido)ethyl) 4-methyl-3-oxopentanethioate] was run?
The value was ≥20%.

What about the activation at 10 µM ([1]; 10 uM) of the same molecule?
The activation at 10 µM was ≥ 30%.

And the inhibition at 10 µM [1, 7]?
Its inhibition at 10 µM is ≥ 30%.

And the inhibition at 10 µM [1, 4]?
Its inhibition at 10 µM is ≥ 30%.

COC(=O)CCC(=O)SCCNC(=O)CCNC(=O)[C@H](OC(=O)CNC(C)=O)C(C)(C)CO [Compound 1298, methyl 4-[(2-[3-[(2R)-2-[(2-acetamidoacetyl)oxy]-4-hydroxy-3,3-dimethylbutanamido]propanamido]ethyl)sulfanyl]-4-oxobutanoate] was tested. Which activation at 10 µM [2, 5] did it give?
Its activation at 10 µM is ≥ 30%.

What about the activation at 50 µM [2, 5] of the same molecule?
The activation at 50 µM was ≥ 50%.

And the activation at 10 µM [2, 8]?
The activation at 10 µM was ≥ 30%.

And the activation at 50 µM [2, 9]?
The activation at 50 µM was ≥ 10%.

What about the inhibition at 10 µM [3, 10] of the same molecule?
The inhibition at 10 µM was ≥ 10%.

Which activation at 50 µM [2, 11] does the source give for CC(C)(CO)[C@@H](O)C(=O)NCCC(=O)NCCSC(=O)CCC(=O)O [Compound 1, (R)-4-((2-(3-(2,4-dihydroxy-3,3-dimethylbutanamido)propanamido)ethyl)thio)-4-oxobutanoic acid] here?
Its activation at 50 µM is ≥ 10%.

And the activation at 10 µM [2, 8]?
Its activation at 10 µM is ≥ 10%.

Which inhibition at 10 µM [1, 7] does the source give for CC(C)(COC(=O)CCC(=O)O)[C@@H](O)C(=O)NCCC(=O)NCCS [Compound 1310, (R)-4-(3-hydroxy-4-((3-((2-mercaptoethyl)amino)-3-oxopropyl)amino)-2,2-dimethyl-4-oxobutoxy)-4-oxobutanoic acid] here?
The inhibition at 10 µM was ≥ 30%.

What about the inhibition at 10 µM [1, 4] of the same molecule?
The inhibition at 10 µM was ≥ 30%.

What about the activation at 50 µM ([1]; 50 uM) of the same molecule?
The activation at 50 µM was ≥ 30%.

Which activation at 10 µM [2, 12] does the source give for CC(C)(CO)[C@@H](O)C(=O)NCCC(=O)NCCSC(=O)CCCN [Compound 370, (2R)—N-[2-([2-[(4-aminobutanoyl)sulfanyl]ethyl]carbamoyl)ethyl]-2,4-dihydroxy-3,3-dimethylbutanamide] here?
The activation at 10 µM was ≥ 10%.

And the activation at 50 µM [2, 11]?
Its activation at 50 µM is ≥ 10%.

What about the activation at 10 µM [2, 9] of the same molecule?
Its activation at 10 µM is ≥ 10%.

Which results are given for CC(C(=O)SCCNC(=O)CCNC(=O)[C@H](O)C(C)(C)CO)[C@@H](C)O (stereo partly drawn) [Compound 1244, (2R)-2,4-dihydroxy-N-{2-[(2-{[(3R)-3-hydroxy-2-methylbutanoyl]sulfanyl}ethyl)carbamoyl]ethyl}-3,3-dimethylbutanamide]?
inhibition at 10 µM [1, 7]: ≥ 30%; inhibition at 10 µM [1, 4]: ≥ 30%

With CCC(C)C(=O)CC(=O)SCCNC(=O)CCNC(=O)[C@H](O)C(C)(C)CO (stereo partly drawn) [Compound 1240, S-(2-(3-((R)-2,4-dihydroxy-3,3-dimethylbutanamido)propanamido)ethyl) 4-methyl-3-oxohexanethioate] as the molecule, how does the “% Increase in Live Macrophage Cells” value ([1]; 10 uM) read?
Its value is ≥20%.

What about the inhibition at 10 µM [1, 7] of the same molecule?
Its inhibition at 10 µM is ≥ 30%.

What about the inhibition at 10 µM [1, 4] of the same molecule?
The inhibition at 10 µM was ≥ 30%.

What about the activation at 50 µM ([1]; 50 uM) of the same molecule?
Its activation at 50 µM is ≥ 30%.

How did the “% increase in MMP-9” value ([3]; 1 uM) turn out when COC(=O)CCC(=O)SCCNC(=O)CCNC(=O)[C@H](O)C(C)(C)COC(C)=O [Compound 138] was run?
Its value is ≥10%.

CC(C)(CO)[C@@H](O)C(=O)NCCC(=O)NCCSC(CC(=O)OCC[N+](C)(C)C)C(=O)O (stereo partly drawn) [Compound 51, [2-([3-carboxy-3-[(2-[3-[(2R)-2,4-dihydroxy-3,3-dimethylbutanamido]propanamido]ethyl)sulfanyl]propanoyl]oxy)ethyl]trimethylazanium] was tested. Which activation at 50 µM [2, 11] did it give?
Its activation at 50 µM is ≥ 10%.

Which results are given for COC(=O)C(C)C(=O)SCCNC(=O)CCNC(=O)[C@H](O)C(C)(C)CO (stereo partly shown) [Compound 405]?
% decrease in IL-10 Secretion ([1]; 50 uM): ≥30%; % decrease in Live Macrophage Cells ([1]; 50 uM): ≥20%; activation at 10 µM ([1]; 10 uM): ≥ 30%; inhibition at 10 µM [1, 7]: ≥ 30%; inhibition at 10 µM [1, 4]: ≥ 30%

Which results are given for CC(C)(CO)[C@@H](O)C(=O)NCCC(=O)NCCSC(=O)CC(O)C(=O)O (stereo partly shown) [Compound 39]?
% Increase in Live Macrophage Cells ([1]; 10 uM): ≥20%; activation at 10 µM ([1]; 10 uM): ≥ 30%; inhibition at 10 µM [1, 7]: ≥ 30%; inhibition at 10 µM [1, 4]: ≥ 30%

Which results are given for COC(=O)CCC(=O)SCCNC(=O)CCNC(=O)[C@H](OC(=O)CN)C(C)(C)CO [Compound 1294, methyl 4-[(2-[3-[(2R)-2-[(2-aminoacetyl)oxy]-4-hydroxy-3,3-dimethylbutanamido]propanamido]ethyl)sulfanyl]-4-oxobutanoate]?
activation at 10 µM [2, 8]: ≥ 30%; inhibition at 1 µM ([3]; Homo sapiens, Epithelial cell, 24 h, 1 uM, read-out: % decrease in MMP-1): ≥ 10%

Which results are given for CC(=O)SCCNC(=O)CCNC(=O)[C@H](O)C(C)(C)COC(=O)[C@H](C)N [Compound 502, (3R)-3-[(2-[[2-(acetylsulfanyl)ethyl]carbamoyl]ethyl)carbamoyl]-3-hydroxy-2,2-dimethylpropyl (2S)-2-aminopropanoate]?
activation at 10 µM [2, 12]: ≥ 30%; activation at 50 µM [2, 12]: ≥ 10%; % decrease in IL-1α ([3]; 1 uM): ≥10%

What does the source list for CC1(CC(=O)SCCNC(=O)CCNC(=O)[C@H](O)C(C)(C)CO)OCCO1 [Compound 1252, (R)—S-(2-(3-(2,4-dihydroxy-3,3-dimethylbutanamido)propanamido)ethyl)-2-(2-methyl-1,3-dioxolan-2-yl)ethanethioate]?
% decrease in Live Macrophage Cells ([1]; 50 uM): ≥20%; inhibition at 10 µM [1, 7]: ≥ 30%; inhibition at 10 µM [1, 4]: ≥ 30%; activation at 50 µM ([1]; 50 uM): ≥ 30%

With COC(=O)CC(SCCNC(=O)CCNC(=O)[C@H](O)C(C)(C)COC(C)=O)C(=O)OC (stereo partly drawn) [Compound 149, 1,4-dimethyl 2-[(2-[3-[(2R)-4-(acetyloxy)-2-hydroxy-3,3-dimethylbutanamido]propanamido]ethyl)sulfanyl]butanedioate] as the molecule, how does the “% decrease in tPA” value [3] read?
Its value is ≥10%.

How did the “% decrease in IL-10 Secretion” value ([1]; 10 uM) turn out when CC(C)=CC(=O)SCCNC(=O)CCNC(=O)[C@H](O)C(C)(C)CO [Compound 37, S-2-{3-[(R)-2,4-dihydroxy-3,3-dimethylbutyrylamino]propionylamino}ethyl 3-methyl-2-butenethioate] was run?
The value was ≥30%.

And the inhibition at 10 µM [1, 4]?
Its inhibition at 10 µM is ≥ 30%.

What about the inhibition at 50 µM [1, 6] of the same molecule?
Its inhibition at 50 µM is ≥ 30%.

Which “% decrease in IL-10 Secretion” value ([1]; 50 uM) does the source give for CC(C)(CO)[C@@H](OC(=O)CCC(=O)O)C(=O)NCCC(=O)NCCS [Compound 1311, (R)-4-((4-hydroxy-1-((3-((2-mercaptoethyl)amino)-3-oxopropyl)amino)-3,3-dimethyl-1-oxobutan-2-yl)oxy)-4-oxobutanoic acid] here?
Its value is ≥30%.

What about the inhibition at 10 µM [1, 7] of the same molecule?
The inhibition at 10 µM was ≥ 30%.

What about the inhibition at 10 µM [1, 4] of the same molecule?
Its inhibition at 10 µM is ≥ 30%.

And the activation at 50 µM ([1]; 50 uM)?
The activation at 50 µM was ≥ 30%.

For CCCCCCC(=O)SCCNC(=O)CCNC(=O)[C@H](O)C(C)(C)CO [Compound 372, (2R)—N-(2-[[2-(heptanoylsulfanyl)ethyl]carbamoyl]ethyl)-2,4-dihydroxy-3,3-dimethylbutanamide], which activation at 50 µM [2, 11] is on record?
Its activation at 50 µM is ≥ 10%.

What about the inhibition at 10 µM [3, 10] of the same molecule?
The inhibition at 10 µM was ≥ 10%.

How did the inhibition at 10 µM [1, 4] turn out when C[C@H](CC(=O)SCCNC(=O)CCNC(=O)[C@H](O)C(C)(C)CO)OC(=O)CCC(=O)O [Compound 1243, 4-{[(2R)-4-[(2-{3-[(2R)-2,4-dihydroxy-3,3-dimethylbutanamido]propanamido}ethyl)sulfanyl]-4-oxobutan-2-yl]oxy}-4-oxobutanoic acid] was run?
The inhibition at 10 µM was ≥ 30%.

What does the source list for CC(=O)SCCNC(=O)CCNC(=O)[C@H](O)C(C)(C)COC(=O)[C@@H](N)Cc1ccc(O)c(O)c1 [Compound 498, (3R)-3-[(2-[[2-(acetylsulfanyl)ethyl]carbamoyl]ethyl)carbamoyl]-3-hydroxy-2,2-dimethylpropyl (2S)-2-amino-3-(3,4-dihydroxyphenyl)propanoate]?
activation at 10 µM [2, 9]: ≥ 10%; % increase in MMP-1 ([3]; 1 uM): ≥10%; % decrease in tPA [3]: ≥10%

With COC(=O)CCC(=O)SCCNC(=O)CCNC(=O)[C@H](O)C(C)(C)CO [Compound 4, Methyl (R)-4-((2-(3-(2,4-dihydroxy-3,3-dimethylbutanamido)propanamido)ethyl)thio)-4-oxobutanoate] as the molecule, how does the inhibition at 10 µM [1, 4] read?
Its inhibition at 10 µM is ≥ 30%.

How did the activation at 10 µM ([1]; 10 uM) turn out when CC(C)(CO)[C@@H](O)C(=O)NCCC(=O)NCCSC(=O)C1CCC(=O)N1 (stereo partly drawn) [Compound 1227, S-2-{3-[(R)-2,4-dihydroxy-3,3-dimethylbutyrylamino]propionylamino}ethyl 5-oxo-2-pyrrolidinecarbothioate] was run?
Its activation at 10 µM is ≥ 30%.

And the inhibition at 10 µM [1, 4]?
The inhibition at 10 µM was ≥ 30%.
